This note sets out measurements from ChEMBL document CHEMBL1137505, “Direct diazo-transfer reaction on beta-lactam: synthesis and preliminary biological activities of 6-triazolylpenicillanic acids” (2007).

What all share (format): functional
For experiment [1], the system named is Staphylococcus aureus. As to the kind of experiment: Antibacterial activity against Staphylococcus aureus ATCC 29213.
In experiment [2] the test system is Escherichia coli. Description: Antibacterial activity against Escherichia coli ATCC 25922.
The test system of experiment [3] is Streptococcus pneumoniae. Description: Antibacterial activity against Streptococcus pneumoniae ATCC 49619.
Experiment [4] relates to Bacillus anthracis. As to the kind of experiment: Antibacterial activity against Bacillus anthracis AMES.

As a reminder, the MIC is the least concentration at which growth counts as inhibited.

Each structure is given as a SMILES string. Converted amounts (≈) assume the structure as drawn.

As for `CC1(C)S[C@@H]2[C@H](n3cc(-c4ccccn4)nn3)C(=O)N2[C@H]1C(=O)O`, the MIC in experiment [1], in experiment [2], in experiment [3] and in experiment [4] was more than 8 µg/mL in each case.
For `CC1(C)S[C@@H]2[C@H](n3cc(-c4ccc(-c5ccncc5)cc4)nn3)C(=O)N2[C@H]1C(=O)O`, the minimum inhibitory concentration (MIC) in experiment [1], in experiment [2], in experiment [3] and in experiment [4] was more than 8 µg/mL each time.
Regarding `CC1(C)S[C@@H]2[C@H](n3cc(-c4ccccc4-c4ccccc4)nn3)C(=O)N2[C@H]1C(=O)O`, the MIC in experiment [1], in experiment [2], in experiment [3] and in experiment [4] was more than 8 µg/mL each time.
For the molecule `COc1cccc(OC)c1-c1cn([C@@H]2C(=O)N3[C@@H]2SC(C)(C)[C@@H]3C(=O)O)nn1`, the MIC in experiment [1], in experiment [2], in experiment [3] and in experiment [4] was more than 8 µg/mL each time.
As for `CC1(C)S[C@@H]2[C@H](n3cc(C(O)c4ccccc4)nn3)C(=O)N2[C@H]1C(=O)O` (stereo partly drawn), the MIC in experiment [1], in experiment [2], in experiment [3] and in experiment [4] was more than 8 µg/mL each time.
`CC1(C)S[C@@H]2[C@H](n3cc(C(O)c4ccc(-c5ccncc5)cc4)nn3)C(=O)N2[C@H]1C(=O)[O-].[Na+]` (stereo partly drawn): the minimal inhibitory concentration (MIC) in experiment [1] was more than 8 µg/mL; in experiment [2] it was more than 8 µg/mL; in experiment [3] it was not below 8 µg/mL; in experiment [4] it was not below 8 µg/mL.
Regarding `CC1(C)S[C@@H]2[C@H](n3cc(-c4ccncc4)nn3)C(=O)N2[C@H]1C(=O)O`, the minimal inhibitory concentration (MIC) in experiment [1], in experiment [2], in experiment [3] and in experiment [4] was more than 8 µg/mL each time.
For the molecule `CC1(C)S[C@@H]2[C@H](n3cc(-c4ccc(-c5ccccc5)cc4)nn3)C(=O)N2[C@H]1C(=O)O`, the minimum inhibitory concentration (MIC) in experiment [1] is more than 8 µg/mL; in experiment [2] it was more than 8 µg/mL; in experiment [3] it was not below 8 µg/mL; in experiment [4], more than 8 µg/mL.
As to `CC1(C)S[C@@H]2[C@H](n3cc(-c4cccc(-c5ccccc5)c4)nn3)C(=O)N2[C@H]1C(=O)O`, the minimum inhibitory concentration (MIC) in experiment [1], in experiment [2], in experiment [3] and in experiment [4] was more than 8 µg/mL each time.
With `CC1(C)S[C@@H]2[C@H](NC(=O)Cc3ccccc3)C(=O)N2[C@H]1C(=O)O` [PENICILLIN G], the MIC in experiment [1] is 1 µg/mL (≈ 2.99 µM); in experiment [2], more than 2 µg/mL; in experiment [4], not above 0.125 µg/mL.
As to `CC1(C)S[C@@H]2[C@H](n3cc(-c4cccnc4)nn3)C(=O)N2[C@H]1C(=O)O`, the minimum inhibitory concentration (MIC) in experiment [1], in experiment [2], in experiment [3] and in experiment [4] was more than 8 µg/mL throughout.
Regarding `CC1(C)S[C@@H]2[C@H](n3cc(-c4ccccc4)nn3)C(=O)N2[C@H]1C(=O)O`, the MIC in experiment [1] was more than 8 µg/mL; in experiment [2], more than 8 µg/mL; in experiment [3] it was 4 µg/mL (≈ 11.6 µM); in experiment [4] it was more than 8 µg/mL.
As to `CCN1CCN(C(=O)N[C@@H](C(=O)N[C@@H]2C(=O)N3[C@@H]2SC(C)(C)[C@@H]3C(=O)O)c2ccccc2)C(=O)C1=O` [PIPERACILLIN], the figures for the minimum inhibitory concentration (MIC) in experiment [1], in experiment [2] and in experiment [4] were 2 µg/mL (≈ 3.86 µM), 4 µg/mL (≈ 7.73 µM) and 1 µg/mL (≈ 1.93 µM), respectively.
For `CC1(C)S[C@@H]2[C@H](n3cc(Cc4ccccc4)nn3)C(=O)N2[C@H]1C(=O)O`, the minimum inhibitory concentration (MIC) is more than 8 µg/mL in experiment [1], more than 8 µg/mL in experiment [2], 4 µg/mL (≈ 11.2 µM) in experiment [3] and more than 8 µg/mL in experiment [4].
As to `CC1(C)S[C@@H]2[C@H](n3cc(-c4cccs4)nn3)C(=O)N2[C@H]1C(=O)O`, the minimum inhibitory concentration (MIC) in experiment [1] was more than 8 µg/mL; in experiment [2] it was more than 8 µg/mL; in experiment [3], 8 µg/mL (≈ 22.8 µM); in experiment [4], more than 8 µg/mL.
